Source: patent publication US20240252546A1, “NEURITE OUTGROWTH PROMOTION KIT AND USE THEREFOR” (KEIO UNIVERSITY, priority 2021, published 2024)

Assays:
phosphorylated CDC25B = test: Phosphorylated CDC25B in nerve cells after inducing differentiation (Experimental Example 12); format: cell-based, human; conditions: 201B7 neurospheres treated 24 hours, differentiated 14 days; compared with the untreated case
Description: Neurospheres were treated with DAPT or Compound 34, and the amount of phosphorylated CDC25B after inducing differentiation into nerve cells was examined.
Neurospheres derived from 201B7 cells, which are cells of a human iPS cell line, were prepared in the same manner as in Experimental Example 1. Subsequently, each neurosphere was cultured for 24 hours in the presence of each of DAPT and Compound 34. DAPT and Compound 34 were used at the same concentrations as in Experimental Example 1.
Subsequently, each neurosphere was seeded on a 48-well chamber slide (IWAKI & CO., LTD.) coated with poly-L-ornithine/fibronectin, cultured for 14 days in a culture medium containing no growth factor at 37° C. in an environment of 95% air and 5% CO2, and differentiated into nerve cells.
Subsequently, each of the obtained nerve cells was fixed with 4% paraformaldehyde and subjected to immunostaining of each of βIII-tubulin, which is a nerve cell marker, and phosphorylated CDC25B.
FIGS. 20(a) to 20(f) show fluorescence photomicrographs showing the representative results of immunostaining. The scale bar is 100 μm. […]

p38 = test: Expression level of p38 by RNA-seq (Experimental Example 3); format: cell-based, human; conditions: 201B7 neurospheres, vs control
Text: FIG. 6 is a graph showing the results obtained by treating the neurosphere derived from 201B7 cells with each of DAPT and Compound 34, carrying out the RNA-seq analysis, and quantifying the expression level of p38 based on transcriptome data.

GADD45G = test: Expression level of GADD45G in treated neurospheres by RNA-seq (Experimental Example 2); format: cell-based, human; conditions: vs control
Description: Neurospheres derived from 201B7 cells, which are cells of a human iPS cell line, were prepared in the same manner as in Experimental Example 1.
In addition, neurospheres derived from 414C2 cells, which are cells of a human iPS cell line, were prepared according to the following method. First, 414C2 cells were subjected to adhesion culture for 12 days together with fibroblasts derived from a mouse embryo. Subsequently, the cells were subjected to suspension culture for 30 days to form a germ layer body. Subsequently, the aggregated cells were dissociated, cultured in a culture medium obtained by adding 20 ng/ml of FGF2 (PeproTech, Inc.) to an MHM medium of which the composition is shown in Table 1 above, and differentiated into neurospheres.
Subsequently, each neurosphere derived from iPS cells was treated with each of DAPT and Compound 34. Subsequently, one neurosphere having a diameter of about 100 μm was selected from the neurospheres in each group and subjected to an RNA-seq analysis.
FIG. 3 is a graph showing the results obtained by treating the neurosphere derived from 201B7 cells with each of DAPT and Compound 34, carrying out the RNA-seq analysis, and quantifying the expression level of GADD45G based on transcriptome data. In FIG. 3, “Ctl” indicates the result obtained from the control, “DAPT” indicates the result obtained by the DAPT treatment, and “C. 34” indicates the result obtained by Compound 34 treatment.

[1] = tested on: spinal cord injury in the chronic phase; conditions: DAPT used on a neurosphere, neurosphere then transplanted into the site of injury; cited from earlier work
[2] = tested on: nerve cells induced to differentiate from a neurosphere; conditions: nerve cells from a neurosphere on which DAPT has been allowed to act; cited from earlier work
[3] = neurosphere derived from 201B7 cells
[4] = neurosphere derived from 414C2 cells

For `O=C1Nc2ccccc2C(c2ccccc2)=N[C@@H]1NC(=O)[C@H](c1ccc(F)cc1)[C@@H](CO)c1ccc(F)c(F)c1` [Compound 34], the “amount of phosphorylated CDC25B after inducing differentiation into nerve cells” value (phosphorylated CDC25B) was “increased”, the “expression level of p38” value (p38) was “not increased” and the “expression of GADD45G” value (GADD45G; [3]) was “significantly increased”. The “expression of GADD45G” value (GADD45G; [4]) was “significantly increased”.

For `C[C@H](NC(=O)Cc1cc(F)cc(F)c1)C(=O)N[C@H](C(=O)OC(C)(C)C)c1ccccc1` [DAPT], the “treatment of spinal cord injury in the chronic phase” value [1] is listed as “can be treated”, the “amount of phosphorylated CDC25B after inducing differentiation into nerve cells” value (phosphorylated CDC25B) is listed as “increased” and the “expression level of p38” value (p38) is listed as “not increased”. For the same molecule, the neurite outgrowth [2] was “promoted”, the “phosphorylation of p38 MAPK” value [2] was “increased” and the “expression of GADD45G” value (GADD45G; [3]) was “significantly increased”. The “expression of GADD45G” value (GADD45G; [4]) was “significantly increased”.
